Assay results from patent US9493460B2, “Diimide compounds” (UCL BUSINESS PLC, priority 2013, dated 2016).
“Also recorded” adds a separate entry of the source. Read-outs that look alike come from different tables or passages of the source.

Experiments:
[1] = system: A549 (lung) cells; assay: SRB growth inhibition assay, 96 hr exposure, A549; assay type: cell-based, human
Experimental: (§1) Human cancer cell lines, MCF7 (breast), A549 (lung), Mia-PaCa2, PANC1 and HPAC (pancreatic), RCC4 and 786-0 renal, and the somatic human cell line WI-38 (lung fibroblast) were purchased from ATCC. Cell lines were maintained in appropriate medium supplemented with 10% foetal bovine serum (Invitrogen, UK), 2 mM L-glutamine (Invitrogen, Netherlands), and other components as specified by the suppliers. Cell lines were maintained at 37° C., 5% CO2 and routinely passaged. Drugs were dissolved in DMSO and filtered through 0.22 μm pore-size filter units before addition to cell line appropriate media. Cellular growth inhibition was measured using the sulforhodamine B (SRB) assay in 96 well plates as described previously.^1,2 Fifty percent inhibitory concentrations (IC50) were determined by taking the mean absorbance at 540 nm for each drug concentration expressed as a percentage of the absorbance of untreated control wells.
(§2) The anti-proliferative activity of the group of nine ND derivatives was assessed using the SRB assay following 96 h exposure to 2-fold serial dilutions of each compound (Table 2) in a panel of cancer cell lines together with a normal fibroblast line. […] In contrast the morpholine compounds all show sub-μM anti-proliferative activity in at least some of the cancer cell lines used and the two compounds 3d, 3h with n=3 —(CH2)n— linkers to the morpholine groups, show particularly potent activity in the Mia-PaCa2 and PANC1 pancreatic carcinoma and A549 lung adenocarcinoma cell lines (IC50 values of 10-20 nM).
(§3) Next a series of structural isomers were tested.

[2] = system: MCF-7 (breast) cells; assay: SRB growth inhibition assay, 96 hr exposure, MCF-7; assay type: cell-based, human
Experimental: as §1, §2, §3

[3] = system: human telomeric G-quadruplex DNA (F21T); assay: FRET melting assay, human telomeric quadruplex; assay type: binding; details: for change in melting temperature F21T 1 uM: 1 uM ligand; for change in melting temperature F21T 2 uM: 2 uM ligand; for telomeric quadruplex stabilization (in words): FRET melting
Description: (§4) The ability of the naphthalene diimide compounds to stabilize DNA sequences was investigated using a fluorescence resonance energy transfer (FRET) assay modified to be used as a high-throughput screen in a 96-well format. Several quadruplex sequences were studied (the human telomeric G-quadruplex DNA sequence 5′-FAM-d(GGG[TTAGGG]3)-TAMRA-3′ and the duplex sequence 5′-FAM-dTATAGCTATA-HEG-TATAGCTATA-TAMRA-3′ (HEG linker: [(—CH2—CH2—O—)6])), as well as two overlapping sequences from the HSP90 promoter region (HSP90a and HSP90b):
(§5) The labelled oligonucleotides have attached to them the donor fluorophore FAM: 6-carboxyfluorescein and the acceptor fluorophore TAMRA: 6-carboxytetramethylrhodamine. The FRET probe sequences were diluted from stock to the correct concentration (400 nM) in a 60 mM potassium cacodylate buffer (pH 7.4) and then annealed by heating to 85° C. for 10 min, followed by cooling to room temperature in the heating block. The compound was stored as a 10 mM stock solution in DMSO; final solutions (at 2×concentration) were prepared using 10 mM HCl in the initial 1:10 dilution, after which 60 mM potassium cacodylate buffer (pH 7.4) was used in all subsequent steps. The maximum HCl concentration in the reaction volume (at a ligand concentration of 20 μM) is thus 200 μM, well within the range of the buffer used. Relevant controls were also performed to check for interference with the assay. 96-Well plates (MJ Research, Waltham, Mass.) were prepared by aliquoting 50 μl of the annealed DNA into each well, followed by 50 μl of the compound solutions. Measurements were made on a DNA Engine Opticon (MJ Research) with excitation at 450-495 nm and detection at 515-545 nm. Fluorescence readings were taken at intervals of 0.5° C. in the range 30-100° C., with a constant temperature being maintained for 30 s prior to each reading to ensure a stable value. Final analysis of the data was carried out using a script written in the program Origin 7.0 (OriginLab Corp., Northampton, Mass.). The advanced curve-fitting function in Origin 7.0 was used for calculation of ΔTm values. All determinations were performed in triplicate or better. Esds in ΔTm are ±0.1° C.
The ability of compounds 3a-h to stabilize a human telomeric quadruplex was assessed by a high-throughput FRET (Fluorescence Resonance Energy Transfer) melting technique. […] None of the furan tetrahydrofuran, pyranose or acyclic ether compounds has any effect on quadruplex or duplex stability.
(§6) The T-loop sequence represents duplex DNA.

[4] = system: MiaPaCa2 (pancreatic) cells; assay: SRB growth inhibition assay, MiaPaCa2; assay type: cell-based, human; details: SRB assay, 96 hr exposure
Experimental: as §1, §2
Dose-response curves were used to guide the choice of compound concentration and time-points for the array experiments (FIG. 2a). […] To explore this response continuum the transcriptional signature of cells exposed for 24 h to 20 nM, 40 nM, 80 nM concentrations of 3d, or solvent alone as control, was analysed as described in Materials and Methods.
as §3

[5] = system: duplex DNA (T-loop); assay: FRET melting assay, duplex DNA; assay type: binding; details: for change in melting temperature Tloop 1 uM: 1 uM ligand; for change in melting temperature Tloop 2 uM: 2 uM ligand
Description: as §4, §5, §6

[6] = system: HSP90b promoter quadruplex sequence; assay: FRET melting assay, Hsp90B quadruplex; assay type: binding; details: for change in melting temperature Hsp90B 1 uM: 1 uM ligand; for change in melting temperature Hsp90B 2 uM: 2 uM ligand
Description: as §4
as §5, with “±0.1° C. […]” for “±0.1° C.”

[7] = system: 786-O (renal) cells; assay: SRB growth inhibition assay, 96 hr exposure, 786-O; assay type: cell-based, human; details: SRB assay, 96 hr exposure
Experimental: as §1, §2, §3

[8] = system: WI38 normal human fibroblast cells; assay: SRB growth inhibition assay, 96 hr exposure, WI38; assay type: cell-based
Experimental: as §1
as §2, with “nM). […]” for “nM).”

[9] = system: Panc1 (pancreatic) cells; assay: SRB growth inhibition assay, 96 hr exposure, Panc1; assay type: cell-based, human
Experimental: as §1, §2, §3

[10] = system: RCC4 (renal) cells; assay: SRB growth inhibition assay, 96 hr exposure, RCC4; assay type: cell-based, human
Experimental: as §1, §2, §3

[11] = system: HSP90a promoter quadruplex sequence; assay: FRET melting assay, Hsp90A quadruplex; assay type: binding; details: for change in melting temperature Hsp90A 1 uM: 1 uM ligand; for change in melting temperature Hsp90A 2 uM: 2 uM ligand
Description: as §4
as §5, with “±0.1° C. […]” for “±0.1° C.”

[12] = system: panel of cancer cell lines; assay: SRB assay, panel of cancer cell lines and normal fibroblast line; assay type: cell-based, human; details: 96 h exposure; for IC50: Homo sapiens, Fibroblast, read-out: IC50 values across the cell line panel
Experimental: as §1, §2

Structure (SMILES) | IC50 ([1]; 96 hr exposure) [nM] | IC50 [2] [nM] | change in melting temperature F21T 1 uM [3] | change in melting temperature F21T 2 uM [3] | IC50 [4] [nM] | change in melting temperature Tloop 1 uM [5] | change in melting temperature Tloop 2 uM [5] | change in melting temperature Hsp90B 1 uM [6] | change in melting temperature Hsp90B 2 uM [6] | IC50 [7] [nM] | IC50 [8] [nM] | IC50 ([9]; 96 hr exposure) [nM] | IC50 [10] [nM] | change in melting temperature Hsp90A 1 uM [11] | change in melting temperature Hsp90A 2 uM [11] | further results
CN1CCN(CCN2C(=O)c3cc(NCCCN4CCOCC4)c4c5c(cc(NCCCN6CCOCC6)c(c35)C2=O)C(=O)N(CCN2CCN(C)CC2)C4=O)CC1 [SKM036] | 20 ± 1 | 21 ± 1 | 26 | 31 | 5 ± 1 | 2 | 8 | 28 | 32 | 160 ± 21 | 180 ± 2 | 5 ± 1 | 300 ± 16 | 33 | 36 | 
COCCCNc1cc2c3c(c(NCCCOC)cc4c3c1C(=O)N(CCCN1CCN(C)CC1)C4=O)C(=O)N(CCCN1CCN(C)CC1)C2=O [SKM022] | 5750 ± 510 | 17500 ± 980 | <2 | 16 | 7050 ± 830 | 0 | 0 | 22 | 26 | 16100 ± 630 | > 25000 | 2500 ± 340 | 7600 ± 10 | 22 | 24 | 
COCCCN1C(=O)c2cc(NCCCN3CCN(C)CC3)c3c4c(cc(NCCCN5CCN(C)CC5)c(c24)C1=O)C(=O)N(CCCOC)C3=O [Compound 3e, 2,7-bis(3-methoxypropyl)-4,9-bis((3-(4-methylpiperazin-1-yl)propyl)amino)benzo[lmn][3,8]phenanthroline-1,3,6,8(2H,7H)-tetraone] |  |  |  |  |  |  |  |  |  |  |  |  |  |  |  | IC50 [12]: 1000 to 8000 nM; telomeric quadruplex stabilization (in words) [3]: very slight effect; also recorded: low level of quadruplex binding
CN1CCN(CCCN2C(=O)c3cc(NCCCN4CCOCC4)c4c5c(cc(NCCCN6CCOCC6)c(c35)C2=O)C(=O)N(CCCN2CCN(C)CC2)C4=O)CC1 [SKM029] | 7 ± 1 | 14 ± 1 | 29 | 34 | 50 ± 2 | 5 | 9 | 30 | 34 | 440 ± 70 | 300 ± 23 | 2 ± 1 | 610 ± 70 | 34 | 36 | 
CN1CCN(CCCNc2cc3c4c(c(NCCCN5CCN(C)CC5)cc5c4c2C(=O)N(CC2CCCO2)C5=O)C(=O)N(CC2CCCO2)C3=O)CC1 (racemic) [Compound 3a, 4,9-bis((3-(4-methylpiperazin-1-yl)propyl)amino)-2,7-bis((tetrahydrofuran-2-yl)methyl)benzo[lmn][3,8]phenanthroline-1,3,6,8(2H,7H)-tetraone] |  |  |  |  |  |  |  |  |  |  |  |  |  |  |  | anti-proliferative activity (in words) [12]: devoid of significant anti-proliferative activity in all except the Mia-PaCa2 and A549 lines
CN1CCN(CCCNc2cc3c4c(c(NCCCN5CCN(C)CC5)cc5c4c2C(=O)N(Cc2ccco2)C5=O)C(=O)N(Cc2ccco2)C3=O)CC1 [Compound 3b, 2,7-bis(furan-2-ylmethyl)-4,9-bis((3-(4-methylpiperazin-1-yl)propyl)amino)benzo[lmn][3,8]phenanthroline-1,3,6,8(2H,7H)-tetraone] |  |  |  |  |  |  |  |  |  |  |  |  |  |  |  | IC50 [12]: 1000 to 8000 nM; telomeric quadruplex stabilization (in words) [3]: low level of quadruplex binding
CN1CCN(CCCN2C(=O)c3cc(NCC4CCOCC4)c4c5c(cc(NCC6CCOCC6)c(c35)C2=O)C(=O)N(CCCN2CCN(C)CC2)C4=O)CC1 [SKM052] | 460 ± 10 | 510 ± 17 | <2 | 22 | 137 ± 31 | 0 | 0 | 3 | 23 | 290 ± 2 | 2800 ± 230 | 1100 ± 130 | 2200 ± 15 | 2 | 27 | 
CN1CCN(CCCNc2cc3c4c(c(NCCCN5CCN(C)CC5)cc5c4c2C(=O)N(CCCN2CCOCC2)C5=O)C(=O)N(CCCN2CCOCC2)C3=O)CC1 [MM41] |  |  | 27 | 32 |  | 5 | 9 | 29 | 33 |  |  |  |  | 33 | 36 | IC50 ([1]; Homo sapiens, A549, 96 hr exposure): 19 ± 5 nM; IC50 ([2]; Homo sapiens, MCF7): 70 ± 7 nM; IC50 ([4]; Homo sapiens, MIA PaCa-2): 10 ± 10 nM; IC50 ([7]; Homo sapiens, 786-0): 320 ± 10 nM; IC50 ([8]; Homo sapiens, WI-38): 230 ± 10 nM; IC50 ([9]; Homo sapiens, PANC-1, 96 hr exposure): 3 ± 0.5 nM; IC50 ([10]; Homo sapiens, RCC4): 560 ± 50 nM
